What was measured:
[1] = target: JAK2 (recombinant purified GST-tagged catalytic domain) (Homo sapiens (Human), UniProt O60674);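 further: biochemical JAK kinase assay with HTRF detection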
[2] = target: JAK1 (recombinant purified GST-tagged catalytic domain) (Homo sapiens (Human), UniProt P23458);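 further: biochemical assay with HTRF read-out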
Chain of JAK1 (recombinant purified GST-tagged catalytic domain) (P23458 875-1153): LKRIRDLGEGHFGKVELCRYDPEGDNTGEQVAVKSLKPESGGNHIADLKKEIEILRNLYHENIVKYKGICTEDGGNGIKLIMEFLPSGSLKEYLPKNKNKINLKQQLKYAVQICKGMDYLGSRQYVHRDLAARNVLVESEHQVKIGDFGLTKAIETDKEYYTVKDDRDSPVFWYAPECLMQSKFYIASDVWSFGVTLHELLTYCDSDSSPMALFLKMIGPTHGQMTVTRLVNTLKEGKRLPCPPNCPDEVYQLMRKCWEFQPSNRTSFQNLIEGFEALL

Chain of JAK2 (recombinant purified GST-tagged catalytic domain) (O60674 849-1124): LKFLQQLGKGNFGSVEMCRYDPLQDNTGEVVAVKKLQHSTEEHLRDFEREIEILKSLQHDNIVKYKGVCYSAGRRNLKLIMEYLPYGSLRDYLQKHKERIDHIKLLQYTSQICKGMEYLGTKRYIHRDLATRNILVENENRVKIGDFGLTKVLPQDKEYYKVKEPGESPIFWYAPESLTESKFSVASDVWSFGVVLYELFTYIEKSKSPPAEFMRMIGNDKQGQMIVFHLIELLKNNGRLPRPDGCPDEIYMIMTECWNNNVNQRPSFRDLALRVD

CS(=O)(=O)N[C@H]1CC[C@H](n2cc(C(N)=O)c(Nc3ccc(F)cc3)n2)[C@@H](C#N)C1 (mixture of isomers) [Example 38-1, 1-{(1S,2S,4S and 1R,2R,4R)-2-cyano-4-[(methylsulfonyl)amino]cyclohexyl}-3-[(4-fluorophenyl)amino]-1H-pyrazole-4-carboxamide] gave an IC50 [1] of 14 nM and an IC50 [2] of 2 nM.
In the case of CC1CCC(C#N)C(n2cc(C(N)=O)c(Nc3ccccc3)n2)C1 (stereo not shown) [Example 11-6, 1-(2-cyano-5-methylcyclohexyl)-3-(phenylamino)-1H-pyrazole-4-carboxamide], the IC50 [1] is reported as 38 nM and the IC50 [2] is reported as 7 nM.
In the case of CC(C)(C)OC(=O)NCC1CC[C@H](C#N)[C@@H](n2cc(C(N)=O)c(Nc3ccc(F)cc3)n2)C1 (single isomer, unassigned) [Example 11-9, tert-butyl {[(1R or S 3S,4S) and (1S or R, 3R, 4R)]-3-{4-carbamoyl-3-[(4-fluorophenyl)amino]-1H-pyrazol-1-yl}-4-cyanocyclohexyl]methyl}carbamate], the IC50 [1] is reported as 434 nM and the IC50 [2] is reported as 21 nM.
For CN[C@H]1CC[C@H](C#N)[C@@H](n2cc(C(N)=O)c(Nc3ccc(F)cc3)n2)C1 (mixture of isomers) [Example 6-5, 1-{[(1S,2S,5S) and (1R,2R,5R)-2-cyano-5-(methylamino)cyclohexyl]-3-[(4-fluorophenyl)amino]-1H-pyrazole-4-carboxamide], the IC50 [1] was over 1500 nM and the IC50 [2] was 410 nM.
N#C[C@H]1CCCCC1n1cc(C(N)=O)c(Nc2ccc(S(=O)(=O)C(F)F)c(CO)c2)n1 (mixture of isomers) [Example 17-64, 1-[(1S,2S and 1R,2R )-2-cyanocyclohexyl]-3-({4-[(difluoromethyl)sulfonyl]-3-(hydroxymethyl)phenyl}amino)-1H-pyrazole-4-carboxamide] was tested, and the IC50 [1] was 14 nM and the IC50 [2] was 2 nM.
CC1(C)C[N+](C)([C@H]2CC[C@H](n3cc(C(N)=O)c(Nc4ccc(Cl)cc4)n3)[C@@H](C#N)C2)C1 [Example 31-4, 1-[(1S,3S,4S)-4-{4-carbamoyl-3-[(4-chlorophenyl)amino]-1H-pyrazol-1-yl}-3-cyanocyclohexyl]-1,3,3-trimethylazetidinium] gave an IC50 [1] of 34 nM and an IC50 [2] of 1 nM.
For COCCN[C@H]1CCC(n2cc(C(N)=O)c(Nc3ccc(S(=O)(=O)C(F)(F)F)cc3)n2)[C@@H](C#N)C1 (stereo partly drawn) [Example 27-16, 1-{(1S,2S,4S and1R,2R,4R)-2-cyano-4-[(2-methoxyethyl)amino]cyclohexyl}-3-({4-[(trifluoromethyl)sulfonyl]phenyl)amino)-1H-pyrazole-4-carboxamide], the IC50 [1] was 35 nM and the IC50 [2] was 1 nM.
C[C@]1(C#N)CC[C@@H](F)C[C@@H]1n1cc(C(N)=O)c(Nc2ccc(F)cc2)n1 (mixture of isomers) [Example 19-1, 1-((1S,2S,5R and 1R,2R,5S)-2-cyano-5-fluoro-2-methylcyclohexyl)-3-((4-fluorophenyl)amino)-1H-pyrazole-4-carboxamide] gave an IC50 [1] of 8 nM and an IC50 [2] of 3 nM.
In the case of CS(=O)(=O)c1ccc(Nc2nn([C@H]3CCC[C@H]3C#N)cc2C(N)=O)cc1 (mixture of isomers) [Example 1-5, 1-{[(1S,2R) and (1R,2S)]-2-cyanocyclopentyl]}-3-{[4-(methylsulfonyl)phenyl]amino}-1H-pyrazole-4-carboxamide], the IC50 [1] is reported as 82 nM and the IC50 [2] is reported as 5 nM.
N#C[C@H]1CC[C@@H](NCc2ccccc2)C[C@@H]1n1cc(C(N)=O)c(Nc2ccc(F)cc2)n1 (mixture of isomers) [Example 6-6, 1-{[(1S,2S,5R) and (1R,2R,5S)]-5-(benzylamino)-2-cyanocyclohexyl}-3-[(4-fluorophenyl)amino]-1H-pyrazole-4-carboxamide] was tested, and the IC50 [1] was 170 nM and the IC50 [2] was 11 nM.
In the case of CN(C)[C@H]1CC[C@H](C#N)[C@@H](n2cc(C(N)=O)c(Nc3ccc(F)cc3)n2)C1 (mixture of isomers) [Example 6-1, 1-[(1S,2S,5S and 1R,2R,5R)-2-cyano-5-(dimethylamino)cyclohexyl]-3-[(4-fluorophenyl)amino]-1H-pyrazole-4-carboxamide], the IC50 [1] is reported as over 1500 nM and the IC50 [2] is reported as 410 nM.
For CC(C)(C)OC(=O)NCC1CC[C@H](C#N)[C@@H](n2cc(C(N)=O)c(Nc3ccc(F)cc3)n2)C1 (single isomer, unassigned) [Example 11-10, tert-butyl {[(1S or R,3S,4S) and (1R or S,3R,4R)]-3-{4-carbamoyl-3-[(4-fluorophenyl)amino]-1H-pyrazol-1-yl}-4-cyanocyclohexyl]methyl}carbamate], the IC50 [1] was 1300 nM and the IC50 [2] was 110 nM.
CC(C)(C)OC(=O)NCC1CC[C@@H](C#N)[C@@H](n2cc(C(N)=O)c(Nc3ccc(F)cc3)n2)C1 (mixture of isomers) [Example 11-8, tert-butyl {[(3S,4R) and (3R,4S)]-3-{4-carbamoyl-3-[(4-fluorophenyl)amino]-1H-pyrazol-1-yl}-4-cyanocyclohexyl]methyl}carbamate] showed an IC50 [1] of over 1500 nM and an IC50 [2] of 158 nM.
In the case of CC1(C)CC[C@@H](C#N)[C@@H](n2cc(C(N)=O)c(Nc3ccccc3)n2)C1 (mixture of isomers) [Example 11-2, 1-{[(1S,2R) and (1R,2S)]-2-Cyano-5,5-dimethylcyclohexyl}-3-(phenylamino)-1H-pyrazole-4-carboxamide], the IC50 [1] is reported as 50 nM and the IC50 [2] is reported as 11 nM.
Molecule N#C[C@@H]1CCCC(F)[C@@H]1n1cc(C(N)=O)c(Nc2ccccc2)n1 (stereo partly shown) [Example 23-2] has an IC50 [1] of 212 nM and an IC50 [2] of 67 nM.
Molecule N#C[C@H]1C[C@@H](NCC(F)F)CC[C@@H]1n1cc(C(N)=O)c(Nc2ccc(S(=O)(=O)C(F)F)cc2)n1 (single isomer, unassigned) [Example 28-126, 1-{(1S,2S,4S or 1R,2R,4R )-2-cyano-4-[(2,2-difluoroethyl)amino]cyclohexyl}-3-({4-[(difluoro-methyl)sulfonyl]phenyl}amino)-1H-pyrazole-4-carboxamide] has an IC50 [1] of 5 nM and an IC50 [2] of 0.5 nM.
For N#C[C@H]1C[C@@H](N2CCC2)CC[C@@H]1n1cc(C(N)=O)c(Nc2ccc(OC(F)F)nc2)n1 (single isomer, unassigned) [Example 28-3, 1-[(1S,2S,4S or 1R,2R,4R)-4-(azetidin-1-yl)-2-cyanocyclohexyl]-3-{[6-(difluoromethoxy)pyridin-3-yl]amino}-1H-pyrazole-4-carboxamide], the IC50 [1] was 87 nM and the IC50 [2] was 5 nM.
Molecule CS(=O)(=O)N[C@@H]1CC[C@H](n2cc(C(N)=O)c(Nc3ccc(F)cc3)n2)[C@@H](C#N)C1 (mixture of isomers) [Example 38-2, 1-{(1S,2S,4R and 1R,2R,4S)-2-cyano-4-[(methylsulfonyl)amino]cyclohexyl}-3-[(4-fluorophenyl)amino]-1H-pyrazole-4-carboxamide] has an IC50 [1] of 12 nM and an IC50 [2] of 0.9 nM.
In the case of CS(=O)(=O)c1ccc(Nc2nn([C@H]3CCC[C@@H]3C#N)cc2C(N)=O)cc1 (mixture of isomers) [Example 1-4, 1-{[(1S,2S) and (1R,2R)-2-cyanocyclopentyl]}-3-{4-(methylsulfonyl)phenyl]amino}-1H-pyrazole-4-carboxamide], the IC50 [1] is reported as 11 nM and the IC50 [2] is reported as 0.5 nM.
For CC1(C)CN(C(=O)[C@H]2CC[C@H](n3cc(C(N)=O)c(Nc4ccc(Cl)cc4)n3)[C@@H](C#N)C2)C1 (single isomer, unassigned) [Example 35-1, 3-(4-chlorophenylamino)-1-((1S,2S,4S or 1R,2R,4R)-2-cyano-4-(3,3-dimethylazetidine-1-carbonyl)cyclohexyl)-1H-pyrazole-4-carboxamide], the IC50 [1] was 45 nM and the IC50 [2] was 6 nM.
